Three molecules from ChEMBL document CHEMBL1133410, “Synthesis of enantiomerically pure (+)- and (-)-18-methoxycoronaridine hydrochloride and their preliminary assessment as anti-addictive agents” (Bioorg Med Chem Lett, 2000) can be followed below.

Where a name gives a salt, the structure may show the parent alone.

This assay deals with Mu-type opioid receptor (Bos taurus, UniProt P79350). Put plainly: Binding affinity against Opioid receptor mu 1 of calf cortex using […] as radioligand.
Mu-type opioid receptor, sequence (P79350 whole entry): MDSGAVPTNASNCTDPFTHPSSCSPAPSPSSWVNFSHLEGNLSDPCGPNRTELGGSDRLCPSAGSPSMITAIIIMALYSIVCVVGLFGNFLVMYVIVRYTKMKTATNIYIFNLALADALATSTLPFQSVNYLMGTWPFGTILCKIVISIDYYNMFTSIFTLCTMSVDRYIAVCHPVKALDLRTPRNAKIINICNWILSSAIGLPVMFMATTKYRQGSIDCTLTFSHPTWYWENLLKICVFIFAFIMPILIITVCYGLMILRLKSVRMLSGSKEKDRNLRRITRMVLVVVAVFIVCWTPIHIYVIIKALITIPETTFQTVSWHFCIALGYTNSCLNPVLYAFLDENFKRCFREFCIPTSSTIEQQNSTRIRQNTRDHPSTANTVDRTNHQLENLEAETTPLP
Turning to `COCCC1CC2CN3CCc4c([nH]c5ccccc45)C(C(=O)OC)(C2)C13` (stereo in doubt; (+)) [ZOLUNICANT HYDROCHLORIDE], the inhibitory constant (Ki) (commonly the dissociation constant of the complex between target and ligand, obtained from inhibition or displacement) was found to be 740 nM. That is a sub-micromolar value. As for `COCCC1CC2CN3CCc4c([nH]c5ccccc45)C(C(=O)OC)(C2)C13` (racemic) [ZOLUNICANT HYDROCHLORIDE], the affinity, expressed as Ki, was 1100 nM. Regarding `COCCC1CC2CN3CCc4c([nH]c5ccccc45)C(C(=O)OC)(C2)C13` (stereo in doubt; (-)) [ZOLUNICANT HYDROCHLORIDE], affinity was put at a Ki of 13000 nM. Against the preceding molecule, the Ki is about 12-fold higher.
